Assay results as given in patent US12180187B2, “1-phenyl-5-azinylpyrazolyl-3-oxyalkyl acids and their use for controlling unwanted plant growth” (BAYER AKTIENGESELLSCHAFT, priority 2019, dated 2024).

Columns and labels:
DIGSA [1] = test: Pre-emergence action against DIGSA, 1280 g/ha; format: in vivo, Digitaria sanguinalis; conditions: visual scoring after about 3 weeks vs untreated controls, 100% = plants have died, 0% = like control plants
Method in brief: (§1)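 Soil-surface application after sowing, before emergence: WP or EC formulations in water with 0.5% additive, 600 litres per hectare, onto sandy loam pots. Damage rated visually in % relative to untreated plants after roughly 3 weeks in a greenhouse.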

LOLRI [2] = test: Pre-emergence action against LOLRI, 1280 g/ha; format: in vivo, Lolium rigidum; conditions: visual scoring after about 3 weeks vs untreated controls, 100% = plants have died, 0% = like control plants
Method in brief: as §1

POAAN [3] = test: Pre-emergence action against POAAN, 1280 g/ha; format: in vivo, Poa annua; conditions: visual scoring after about 3 weeks vs untreated controls, 100% = plants have died, 0% = like control plants
Method in brief: as §1

SETVI [4] = test: Pre-emergence action against SETVI, 1280 g/ha; format: in vivo, Setaria viridis; conditions: visual scoring after about 3 weeks vs untreated controls, 100% = plants have died, 0% = like control plants
Method in brief: as §1

AMARE [5] = test: Pre-emergence action against AMARE, 1280 g/ha; format: in vivo, Amaranthus retroflexus; conditions: scored visually after about 3 weeks vs untreated controls (100% = plants have died)
Method in brief: as §1

MATIN [6] = test: Pre-emergence action against MATIN, 1280 g/ha; format: in vivo, Tripleurospermum inodorum (Matricaria inodora); conditions: scored visually after about 3 weeks vs untreated controls (100% = plants have died)
Method in brief: as §1

STEME [7] = test: Pre-emergence action against STEME, 1280 g/ha; format: in vivo, Stellaria media; conditions: scored visually after about 3 weeks vs untreated controls (100% = plants have died)
Method in brief: as §1

VERPE [8] = test: Pre-emergence action against VERPE, 1280 g/ha; format: in vivo, Veronica persica; conditions: scored visually after about 3 weeks vs untreated controls (100% = plants have died)
Method in brief: as §1

ALOMY [9] = test: Post-emergence action against ALOMY, 1.28 kg/ha; format: in vivo, Alopecurus myosuroides; conditions: dosage 1280 g/ha, visual rating about 3 weeks after treatment vs untreated controls
Method in brief: (§2)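 Spray at one-leaf stage with WP/EC + 0.5% additive, 600 L water/ha. Greenhouse, optimum conditions, ~3 wk. Visual % control vs untreated; 0 = no effect, 100 = dead.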

DIGSA [10] = test: Post-emergence action against DIGSA, 1.28 kg/ha; format: in vivo, Digitaria sanguinalis; conditions: dosage 1280 g/ha, visual rating about 3 weeks after treatment vs untreated controls
Method in brief: as §2

ABUTH = test: Post-emergence action against ABUTH, 1.28 kg/ha; format: in vivo, Abutilon theophrasti; conditions: dosage 1280 g/ha, visual rating about 3 weeks after treatment vs untreated controls (100% = plants died)
Method in brief: as §2

KCHSC = test: Post-emergence action against KCHSC, 1.28 kg/ha; format: in vivo, Bassia scoparia; conditions: dosage 1280 g/ha, visual rating about 3 weeks after treatment vs untreated controls (100% = plants died)
Procedure: (§3) • a) Seeds of mono- and dicotyledonous weed plants are placed in plastic pots in sandy loam soil (twin sowing with one species each of mono- or dicotyledonous weed plants per pot), covered with soil and cultivated in a greenhouse under controlled growth conditions. 2 to 3 weeks after sowing, the test plants are treated at the one-leaf stage. The compounds of the invention, formulated in the form of wettable powders (WP) or as emulsion concentrates (EC), are applied to the green parts of the plants as aqueous suspension or emulsion with addition of 0.5% additive at a water application rate equivalent to 600 litres per hectare. After the test plants have been kept in the greenhouse under optimum growth conditions for about 3 weeks, the activity of the preparations is rated visually in comparison to untreated controls. For example, 100% activity=the plants have died, 0% activity=like control plants. As shown by the results, compounds of the general formula (I) of the invention, in post-emergence treatment, have very good herbicidal efficacy (90% to 100% herbicidal action) against harmful plants such as Abutilon theophrasti, Digitaria sanguinalis, Echinochloa crus-galli, Matricaria inodora, Poa annua, at an application rate of 1.28 kg of active substance per hectare.

MATIN [11] = test: Post-emergence action against MATIN, 1.28 kg/ha; format: in vivo, Tripleurospermum inodorum (Matricaria inodora); conditions: dosage 1280 g/ha, visual rating about 3 weeks after treatment vs untreated controls (100% = plants died)
Method in brief: as §2

STEME [12] = test: Post-emergence action against STEME, 1.28 kg/ha; format: in vivo, Stellaria media; conditions: dosage 1280 g/ha, visual rating about 3 weeks after treatment vs untreated controls (100% = plants died)
Method in brief: as §2

VERPE [13] = test: Post-emergence action against VERPE, 1.28 kg/ha; format: in vivo, Veronica persica; conditions: dosage 1280 g/ha, visual rating about 3 weeks after treatment vs untreated controls (100% = plants died)
Method in brief: as §2

ALOMY [14] = test: Pre-emergence action against ALOMY, 1280 g/ha; format: in vivo, Alopecurus myosuroides; conditions: visual scoring after about 3 weeks vs untreated controls, 100% = plants have died, 0% = like control plants
Method in brief: as §1

ECHCG [15] = test: Pre-emergence action against ECHCG, 1280 g/ha; format: in vivo, Echinochloa crus-galli; conditions: visual scoring after about 3 weeks vs untreated controls, 100% = plants have died, 0% = like control plants
Method in brief: as §1

ECHCG [16] = test: Post-emergence action against ECHCG, 1.28 kg/ha; format: in vivo, Echinochloa crus-galli; conditions: dosage 1280 g/ha, visual rating about 3 weeks after treatment vs untreated controls
Method in brief: as §2

POAAN [17] = test: Post-emergence action against POAAN, 1.28 kg/ha; format: in vivo, Poa annua; conditions: dosage 1280 g/ha, visual rating about 3 weeks after treatment vs untreated controls
Method in brief: as §2

SETVI [18] = test: Post-emergence action against SETVI, 1.28 kg/ha; format: in vivo, Setaria viridis; conditions: dosage 1280 g/ha, visual rating about 3 weeks after treatment vs untreated controls
Method in brief: as §2

AMARE [19] = test: Post-emergence action against AMARE, 1.28 kg/ha; format: in vivo, Amaranthus retroflexus; conditions: dosage 1280 g/ha, visual rating about 3 weeks after treatment vs untreated controls (100% = plants died)
Method in brief: as §2

LOLRI [20] = test: Post-emergence action against LOLRI, 1.28 kg/ha; format: in vivo, Lolium rigidum; conditions: dosage 1280 g/ha, visual rating about 3 weeks after treatment vs untreated controls
Procedure: as §3

Structure (SMILES) | Pre-emergence action against DIGSA (DIGSA [1]) [%] | Pre-emergence action against LOLRI (LOLRI [2]) [%] | Pre-emergence action against POAAN (POAAN [3]) [%] | Pre-emergence action against SETVI (SETVI [4]) [%] | Pre-emergence action against AMARE (AMARE [5]) [%] | Pre-emergence action against MATIN (MATIN [6]) [%] | Pre-emergence action against STEME (STEME [7]) [%] | Pre-emergence action against VERPE (VERPE [8]) [%] | Post-emergence action against ALOMY (ALOMY [9]) [%] | Post-emergence action against DIGSA (DIGSA [10]) [%] | Post-emergence action against ABUTH (ABUTH) [%] | Post-emergence action against KCHSC (KCHSC) [%] | Post-emergence action against MATIN (MATIN [11]) [%] | Post-emergence action against STEME (STEME [12]) [%] | Post-emergence action against VERPE (VERPE [13]) [%] | Pre-emergence action against ALOMY (ALOMY [14]) [%] | Pre-emergence action against ECHCG (ECHCG [15]) [%] | Post-emergence action against ECHCG (ECHCG [16]) [%] | Post-emergence action against POAAN (POAAN [17]) [%] | Post-emergence action against AMARE (AMARE [19]) [%] | other results
O=C(O)COc1nn(-c2ccc(F)cc2)c(-c2ccc(F)nc2)c1I [VII-069] | 100 | 90 | 100 | 100 | 100 | 90 | 100 | 100 | 100 | 100 | 90 | 90 | 90 | 90 | 100 |  |  |  |  |  | 
CCOC(=O)COc1nn(-c2ccccc2F)c(-c2ccc(F)cn2)c1I [II-012] | 100 | 100 | 100 | 100 | 90 | 90 | 100 | 90 | 100 | 90 | 90 | 100 | 90 |  | 100 | 90 | 90 | 100 | 100 | 100 | Post-emergence action against SETVI (SETVI [18]): 90%
N#CCCNC(=O)COc1nn(-c2ccc(F)cc2F)c(-c2ccc(F)nc2)c1Br [Example X-029] |  |  | 100 |  | 100 |  | 90 |  |  |  | 90 | 90 |  |  | 100 |  |  |  |  | 90 | 
COC(=O)COc1nn(-c2cc(F)ccc2F)c(-c2ccnc(F)c2)c1Br [VIII-010] | 100 | 100 | 100 | 100 | 100 | 100 | 100 | 100 | 100 | 100 |  | 90 | 100 | 100 | 90 | 100 | 100 | 100 | 100 | 100 | Post-emergence action against LOLRI (LOLRI [20]): 100%; Post-emergence action against SETVI (SETVI [18]): 100%
CCOC(=O)COc1nn(-c2ccc(F)cc2)c(-c2ccc(F)nc2)c1I [VII-102] | 100 | 100 | 100 | 100 | 90 | 90 | 90 | 100 | 100 |  |  | 90 | 100 |  | 100 | 90 | 100 |  | 100 | 100 | 
